Values joined by “and” are separate entries in the source; they are usually repeats but may differ in a detail not shown here. Equal entries are not always repeated.
Assays:
[1] = system: heart allograft rejection; experiment: Rat heart transplantation; assay type: in vivo; settings: rat heart transplant, Lewis/DA, 30 mg/kg bid
Method: The strain combination used: Male Lewis (RT^1 haplotype) and DA (RT^1 haplotype). The animals are anaesthetised using inhalational isofluorane. […] The aorta is ligated and divided distal to the first branch and the brachiocephalic trunk is divided at the first bifurcation. The left pulmonary artery is ligated and divided and the right side divided but left open. All other vessels are dissected free, ligated and divided and the donor heart is removed into iced saline.
The recipient is prepared by dissection and cross-clamping of the infra-renal abdominal aorta and vena cava. The graft is implanted with end-to-side anastomoses, using 10/0 monofilament suture, between the donor brachiocephalic trunk and the recipient aorta and the donor right pulmonary artery to the recipient vena cava. The clamps are removed, the graft tethered retroabdominally, the abdominal contents washed with warm saline and the animal is closed and allowed to recover under a heating lamp. Graft survival is monitored by daily palpation of the beating donor heart through the abdominal wall. Rejection is considered to be complete when heart beat stops. Increases of graft survival are obtained in animals treated with a compound of formula I, II, III or IV or a pharmaceutically acceptable salt or solvate thereof administered orally at a daily dose of 10 to 30 mg/kg bid. […]

[2] = system: Balb/c spleen cells stimulated by irradiated or mitomycin C treated CBA spleen cells; experiment: Murine mixed lymphocyte reaction (MLR); assay type: cell-based; settings: Mus musculus, 120 h, 5 days co-incubation, labeled precursor incorporation into DNA, read-out: IC50 (concentration resulting in 50% inhibition of cell proliferation)
Method: Spleen cells (0.5×10^6) from Balb/c mice (female, 8-10 weeks) are co-incubated for 5 days with 0.5×10^6 irradiated (2000 rads) or mitomycin C treated spleen cells from CBA mice (female, 8-10 weeks). The irradiated allogeneic cells induce a proliferative response in the Balb/c spleen cells which can be measured by labeled precursor incorporation into the DNA. […] The antiproliferative effect of the compounds on the Balb/c cells is measured at various dilutions and the concentration resulting in 50% inhibition of cell proliferation (IC50) is calculated.

Structure (SMILES)	prolongation of graft survival [1]	IC50 [2] [nM]
Cn1cc(C2=C(c3cn(C4CCN(Cc5ccccn5)CC4)c4ccccc34)C(=O)NC2=O)c2ccccc21 [Compound A, 3-(1-methyl-1H-indol-3-yl)-4-[1-{(1-pyridin-2-ylmethyl)-piperidin-4-yl}-1H-indol-3-yl]-pyrrole-2,5-dione]	14 days and 25 days and 26 days	–
Cn1cc(C2=C(c3cn(C4CCNCC4)c4ccccc34)C(=O)NC2=O)c2ccccc21 [Compound B, 3-(1-methyl-1H-indol-3-yl)-4-[1-(piperidin-4-yl)-1H-indol-3-yl]-pyrrole-2,5-dione]	–	195

Reference: patent publication US20070232658A1, “Protein Kinase C Inhibitors for the Treatment of Autoimmune Diseases and of Transplant Rejiction” (priority 2004, published 2007)
